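1) Cells in 96-well plates. 2) Compound, 48 h, 5 concentrations. 3) Linear interpolation between surrounding doses. 4) Unreached endpoint = highest concentration. TGI marks complete inhibition of growth.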
Tests used:
Assay in all cases: DTP human tumour cell line panel, 48 h
[1] = system: A498 renal
[2] = system: ACHN renal
[3] = system: EKVX NSCLC
[4] = system: K-562 leukemia
[5] = system: KM12 colon
[6] = system: MDA-N
[7] = system: MOLT-4 leukemia
[8] = system: NCI/ADR-RES ovarian
[9] = system: PC-3 prostate
[10] = system: RXF 393 renal
[11] = system: SK-OV-3 ovarian

Compound | TGI [1] [µM] | TGI [2] [µM] | TGI [3] [µM] | TGI [4] [µM] | TGI [5] [µM] | TGI [6] [µM] | TGI [7] [µM] | TGI [8] [µM] | TGI [9] [µM] | TGI [10] [µM] | TGI [11] [µM]
c1ccc(N=C2SC(=NNc3ccccc3)SC2=Nc2ccccc2)cc1 | > 100 | > 100 | > 100 | > 100 | > 100 | > 100 | > 100 | > 100 | > 100 | > 100 | > 100
CCOP(=O)(Nc1ccc(-c2ccccc2)cc1)OCC | > 100 | > 100 | > 100 | > 100 | > 100 | > 100 | > 100 | > 100 | > 100 | > 100 | > 100
NNC(=O)c1c(Cl)c(Cl)c(Cl)c(Cl)c1-c1nc2ccccc2[nH]1 | 49.9 | 67.2 | 45.3 | 26 | 29.1 | 18.9 | 26.3 | 59.8 | > 100 | 21.9 | 59.2
O=C1NC2(CCCCC2)N=C2C(Cl)CCCC12Cl (stereo not drawn) | > 100 | > 100 | > 100 | > 100 | > 100 | > 100 | > 100 | > 100 | > 100 | > 100 | > 100
O=C(CN1CCN(C(=O)OCc2ccccc2)CCN(CC(=O)N2CCCCC2)CCN(C(=O)OCc2ccccc2)CC1)N1CCCCC1 | 47.1 | > 54 | > 56.7 | 32.7 | 46.3 | 29.7 | > 46 | 32.5 | 37.3 | 39.1 | > 52.7
CCC1CC2CN3CCc4c([nH]c5c(-c6c(OC)ccc7c8c([nH]c67)[C@]6(C(=O)OC)CC7CC(CC)C6N(CC8)C7)c(O)ccc45)[C@](C(=O)OC)(C2)C13 (stereo partly drawn) | 28.7 | 64 | 39.7 | 27 | 32.3 | 24.6 | 16.7 | 53.9 | 30.2 | 26.8 | 68
Cc1ccc(/C=C/C(=O)c2c([O-])on[n+]2-c2ccccc2)cc1 | 17.9 | 3.55 | 14.6 | > 100 | 7.69 | > 26.3 | 6.64 | 7.11 | 17.2 | 3.65 | > 100
O=C(Cn1nc(Br)c(Br)c1Br)c1ccccc1 | 85.8 | 76.2 | > 100 | 28.7 | > 100 | > 100 | 12.3 | 93.1 | > 100 | 36.4 | 95.2
CC(=O)O[C@H]1C[C@]2(C)C(CCC3O[C@@]32C)[C@@]2(CC(c3ccoc3)OC2O)[C@@H]1C (stereo partly drawn) | > 100 | > 100 | > 100 | > 100 | > 100 | > 100 | 93 | > 100 | > 100 | > 100 | > 100
CCc1n[nH]c(=O)n1N1C(=O)C2CC=CCC2C1=O (stereo not drawn) | > 100 | > 100 | > 100 | > 100 | > 100 | > 100 | > 100 | > 100 | > 100 | > 100 | > 100
Cc1ccc2c(c1)NC(=O)CCSSCCC(=O)N2 | > 100 | > 100 | > 100 | > 100 | > 100 | > 100 | > 100 | > 100 | > 100 | > 100 | > 100
O=C(CSc1nc(=O)[nH]c2nc[nH]c12)Nc1ccccc1 | > 100 | > 100 | > 100 | > 100 | > 100 | > 100 | > 100 | > 100 | > 100 | > 100 | > 100
CCCNC(=S)N/N=C/c1cccc(C)n1 | 87.3 | 44.7 | > 100 | 77.5 | > 100 | > 100 | 72.3 | > 100 | > 100 | > 100 | > 100
O=c1[nH]c2ccc(CC(=S)N3CCOCC3)cc2s1 | > 100 | > 100 | > 100 | > 100 | > 100 | > 100 | > 100 | > 100 | > 100 | > 100 | > 100
COC(=O)CC1(CNC(=O)OCc2ccccc2)OCCO1 | > 100 | > 100 | > 100 | > 100 | > 100 | > 100 | > 100 | > 100 | > 100 | > 100 | > 100
N#Cc1[nH]c(=O)n(-c2ccc(Cl)cc2)c1N | > 10 | > 10 | > 10 | > 10 | > 10 | > 10 | > 10 | > 10 | > 10 | > 10 | > 10
NNC(=O)CNC(=O)CSc1nnc(COc2ccc(Cl)cc2)n1-c1ccccc1 | > 100 | > 100 | > 100 | > 100 | > 100 | > 100 | > 100 | > 100 | > 100 | > 100 | > 100
CN1CCC2(CC1)C(=O)N(N1CCCCCC1)C(=O)N2c1ccccc1 | > 100 | > 100 | > 100 | > 100 | > 100 | > 100 | > 100 | > 100 | > 100 | > 100 | > 100
